Values joined by “and” are separate entries in the source; they are usually repeats but may differ in a detail not shown here. Identical values can stand only once. Toxic doses and inconclusive results are not listed.
Test system: L1210 leukemia ip in BDF1 mice, survival T/C
Experiment: NCI In Vivo Anticancer Drug Screen. Data for tumor model L1210 Leukemia (intraperitoneal) in B6D2F1 (BDF1) mice
Details: endpoint: mean survival time, higher = longer survival
Summary of the method: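 Value reflects the ratio of survival in compound-treated mice to survival in vehicle-treated controls, with both groups carrying the same transplanted tumor.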

[1] = dose: 100.0 mg/kg/injection, schedule: Q01DX009 (ip), vehicle: Klucel (hydroxypropylcellulose) (HPC)
[2] = dose: 100.0 mg/kg/injection, schedule: Q04DX003 (ip), vehicle: Klucel (hydroxypropylcellulose) (HPC)
[3] = dose: 200.0 mg/kg/injection, schedule: Q01DX009 (ip), vehicle: Klucel (hydroxypropylcellulose) (HPC)
[4] = dose: 200.0 mg/kg/injection, schedule: Q04DX003 (ip), vehicle: Klucel (hydroxypropylcellulose) (HPC)
[5] = dose: 400.0 mg/kg/injection, schedule: Q01DX009 (ip), vehicle: Klucel (hydroxypropylcellulose) (HPC)
[6] = dose: 400.0 mg/kg/injection, schedule: Q04DX003 (ip), vehicle: Klucel (hydroxypropylcellulose) (HPC)
[7] = dose: 100.0 mg/kg/injection, schedule: Q01DX001 (ip), vehicle: saline
[8] = dose: 200.0 mg/kg/injection, schedule: Q01DX001 (ip), vehicle: saline
[9] = dose: 400.0 mg/kg/injection, schedule: Q01DX001 (ip), vehicle: saline

Structure (SMILES): CN(C)N=Nc1ccccc1
- T/C (dose: 4.0 mg/kg/injection, schedule: Q03HX008 (ip), vehicle: other): 102 % of control
- T/C (dose: 4.0 mg/kg/injection, schedule: Q03HX016 (ip), vehicle: other): 101 % of control
- T/C (dose: 4.0 mg/kg/injection, schedule: Q03HX024 (ip), vehicle: other): 105 % of control
- T/C (dose: 8.0 mg/kg/injection, schedule: Q03HX008 (ip), vehicle: other): 103 % of control
- T/C (dose: 8.0 mg/kg/injection, schedule: Q03HX016 (ip), vehicle: other): 103 % of control
- T/C (dose: 8.0 mg/kg/injection, schedule: Q03HX024 (ip), vehicle: other): 108 % of control
- T/C (dose: 12.5 mg/kg/injection, schedule: Q04DX003 (ip), vehicle: saline with Tween-80): 102 % of control
- T/C (dose: 15.0 mg/kg/injection, schedule: Q01DX015 (ip), vehicle: carboxymethylcellulose (CMC)): 104 % of control and 106 % of control and 107 % of control
- T/C (dose: 16.0 mg/kg/injection, schedule: Q01DX005 (iv), vehicle: other): 111 % of control
- T/C (dose: 16.0 mg/kg/injection, schedule: Q01DX009 (ip), vehicle: other): 103 % of control
- T/C (dose: 16.0 mg/kg/injection, schedule: Q01DX009 (sc), vehicle: other): 107 % of control
- T/C (dose: 16.0 mg/kg/injection, schedule: Q03HX008 (ip), vehicle: other): 114 % of control
- T/C (dose: 16.0 mg/kg/injection, schedule: Q03HX016 (ip), vehicle: other): 117 % of control
- T/C (dose: 18.0 mg/kg/injection, schedule: Q01DX015 (ip), vehicle: carboxymethylcellulose (CMC)): 104 % of control
- T/C (dose: 25.0 mg/kg/injection, schedule: Q04DX003 (ip), vehicle: saline with Tween-80): 123 % of control
- T/C (dose: 26.0 mg/kg/injection, schedule: Q01DX015 (ip), vehicle: carboxymethylcellulose (CMC)): 108 % of control
- T/C (dose: 30.0 mg/kg/injection, schedule: Q01DX015 (ip), vehicle: carboxymethylcellulose (CMC)): 110 % of control and 207 % of control
- T/C (dose: 31.25 mg/kg/injection, schedule: Q01DX001 (ip), vehicle: saline with Tween-80): 108 % of control
- T/C (dose: 32.0 mg/kg/injection, schedule: Q01DX001 (ip), vehicle: other): 109 % of control
- T/C (dose: 32.0 mg/kg/injection, schedule: Q01DX001 (sc), vehicle: other): 102 % of control
- T/C (dose: 32.0 mg/kg/injection, schedule: Q01DX005 (iv), vehicle: other): 109 % of control
- T/C (dose: 32.0 mg/kg/injection, schedule: Q01DX009 (ip), vehicle: other): 122 % of control
- T/C (dose: 32.0 mg/kg/injection, schedule: Q01DX009 (sc), vehicle: other): 114 % of control
- T/C (dose: 32.0 mg/kg/injection, schedule: Q03HX024 (ip), vehicle: other): 120 % of control
- T/C (dose: 32.0 mg/kg/injection, schedule: Q04DX003 (ip), vehicle: other): 102 % of control
- T/C (dose: 32.0 mg/kg/injection, schedule: Q04DX003 (ip), vehicle: saline): 117 % of control
- T/C (dose: 32.0 mg/kg/injection, schedule: Q08DX002 (ip), vehicle: other): 107 % of control
- T/C (dose: 50.0 mg/kg/injection, schedule: Q01DX001 (ip), vehicle: carboxymethylcellulose (CMC)): 97 % of control
- T/C (dose: 50.0 mg/kg/injection, schedule: Q04DX003 (ip), vehicle: saline with Tween-80): 115 % of control
- T/C (dose: 60.0 mg/kg/injection, schedule: Q01DX015 (ip), vehicle: carboxymethylcellulose (CMC)): 119 % of control and 88 % of control
- T/C (dose: 62.5 mg/kg/injection, schedule: Q01DX001 (ip), vehicle: saline with Tween-80): 111 % of control
- T/C (dose: 64.0 mg/kg/injection, schedule: Q01DX001 (ip), vehicle: other): 112 % of control
- T/C (dose: 64.0 mg/kg/injection, schedule: Q01DX001 (sc), vehicle: other): 102 % of control
- T/C (dose: 64.0 mg/kg/injection, schedule: Q01DX009 (ip), vehicle: other): 120 % of control
- T/C (dose: 64.0 mg/kg/injection, schedule: Q01DX009 (oral), vehicle: other): 122 % of control
- T/C (dose: 64.0 mg/kg/injection, schedule: Q04DX003 (ip), vehicle: other): 114 % of control
- T/C (dose: 64.0 mg/kg/injection, schedule: Q08DX002 (ip), vehicle: other): 101 % of control
- T/C (dose: 100.0 mg/kg/injection, schedule: Q01DX001 (ip), vehicle: carboxymethylcellulose (CMC)): 93 % of control
- T/C (dose: 100.0 mg/kg/injection, schedule: Q04DX003 (ip), vehicle: saline with Tween-80): 105 % of control and 117 % of control
- T/C (dose: 128.0 mg/kg/injection, schedule: Q01DX001 (ip), vehicle: other): 123 % of control
- T/C (dose: 128.0 mg/kg/injection, schedule: Q01DX001 (oral), vehicle: other): 109 % of control
- T/C (dose: 128.0 mg/kg/injection, schedule: Q01DX001 (sc), vehicle: other): 112 % of control
- T/C (dose: 128.0 mg/kg/injection, schedule: Q01DX009 (oral), vehicle: other): 122 % of control
- T/C (dose: 200.0 mg/kg/injection, schedule: Q01DX001 (ip), vehicle: carboxymethylcellulose (CMC)): 123 % of control
- T/C (dose: 256.0 mg/kg/injection, schedule: Q01DX001 (sc), vehicle: other): 121 % of control

Structure (SMILES): Cc1ccc(S(=O)(=O)OCC2C(COS(=O)(=O)c3ccc(C)cc3)C3CCC2C3C(c2ccccc2)c2ccccc2)cc1 (stereo not drawn)
- T/C [1]: 103 % of control
- T/C [2]: 98 % of control
- T/C [3]: 94 % of control
- T/C [4]: 102 % of control
- T/C [5]: 111 % of control
- T/C [6]: 96 % of control

Structure (SMILES): CN(C)N=Nc1ccc(C(=O)OC2CCC3C4CCC5=CC(=O)CCC5(C)C4CCC23C)cc1 (stereo not drawn)
- T/C (dose: 10.0 mg/kg/injection, schedule: Q01DX009 (ip), vehicle: Klucel (hydroxypropylcellulose) (HPC)): 96 % of control
- T/C (dose: 100.0 mg/kg/injection, schedule: Q04DX002 (ip), vehicle: Klucel (hydroxypropylcellulose) (HPC)): 94 % of control
- T/C [3]: 102 % of control
- T/C (dose: 200.0 mg/kg/injection, schedule: Q04DX002 (ip), vehicle: Klucel (hydroxypropylcellulose) (HPC)): 102 % of control
- T/C [5]: 97 % of control
- T/C (dose: 400.0 mg/kg/injection, schedule: Q04DX002 (ip), vehicle: Klucel (hydroxypropylcellulose) (HPC)): 91 % of control

Structure (SMILES): CC(C)NC(=O)NS(=O)(=O)c1ccc(N)cc1
- T/C (dose: 100.0 mg/kg/injection, schedule: Q04DX003 (ip), vehicle: saline): 94 % of control
- T/C (dose: 200.0 mg/kg/injection, schedule: Q04DX003 (ip), vehicle: saline): 103 % of control
- T/C (dose: 400.0 mg/kg/injection, schedule: Q04DX003 (ip), vehicle: saline): 110 % of control

Structure (SMILES): CCN=C(NCC)c1ccc(NC(=O)c2ccc(C(=O)Nc3ccc(C(=NCC)NCC)cc3)c(Cl)c2)cc1
- T/C (dose: 1.87 mg/kg/injection, schedule: Q01DX Z (ip), vehicle: carboxymethylcellulose (CMC)): 101 % of control
- T/C (dose: 3.75 mg/kg/injection, schedule: Q01DX Z (ip), vehicle: carboxymethylcellulose (CMC)): 97 % of control
- T/C (dose: 7.5 mg/kg/injection, schedule: Q01DX Z (ip), vehicle: carboxymethylcellulose (CMC)): 103 % of control

Structure (SMILES): O=C1CCc2cc([N+](=O)[O-])ccc2O1
- T/C (dose: 50.0 mg/kg/injection, schedule: Q01DX001 (ip), vehicle: saline): 103 % of control
- T/C [7]: 92 % of control
- T/C [8]: 94 % of control
- T/C [9]: 103 % of control

Structure (SMILES): NC(=S)NN=C1CCCCC1
- T/C (dose: 5.0 mg/kg/injection, schedule: Q01DX001 (ip), vehicle: carboxymethylcellulose (CMC)): 96 % of control
- T/C (dose: 10.0 mg/kg/injection, schedule: Q01DX001 (ip), vehicle: carboxymethylcellulose (CMC)): 96 % of control
- T/C (dose: 20.0 mg/kg/injection, schedule: Q01DX001 (ip), vehicle: carboxymethylcellulose (CMC)): 107 % of control

Structure (SMILES): O=C1CCN(C2CC(O)C(CO)C2)C(=O)N1 (stereo not drawn)
- T/C [7]: 101 % of control
- T/C [8]: 95 % of control
- T/C [9]: 101 % of control

Structure (SMILES): CC(=O)OC1CC2C(C)(C)C(=O)C=CC2(C)C2CCC3(C)C(c4ccoc4)OC(=O)C4OC43C12C (stereo not drawn)
- T/C (dose: 100.0 mg/kg/injection, schedule: Q01DX001 (sc), vehicle: steriod suspending solution): 104 % of control
- T/C (dose: 200.0 mg/kg/injection, schedule: Q01DX001 (sc), vehicle: steriod suspending solution): 104 % of control
- T/C (dose: 400.0 mg/kg/injection, schedule: Q01DX001 (sc), vehicle: steriod suspending solution): 92 % of control

Structure (SMILES): CCOc1cc(C2=NNc3n[nH]c(=S)n3N2)ccc1O
- T/C [1]: 94 % of control
- T/C [2]: 96 % of control
- T/C [3]: 98 % of control
- T/C [4]: 103 % of control
- T/C [5]: 97 % of control
- T/C [6]: 102 % of control

Structure (SMILES): N/C(=N\O)c1cccc(/C(N)=N/O)c1
- T/C [7]: 103 % of control

From PubChem BioAssay AID248 (DTP/NCI, 2004)
